In publication PMC3404106, “Pharmacology of DB844, an Orally Active aza Analogue of Pafuramidine, in a Monkey Model of Second Stage Human African Trypanosomiasis” (PLoS Neglected Tropical Diseases, 2012):
“Also recorded” adds a separate entry of the source.

Columns and labels:
[1] = Pharmacokinetics (plasma and CSF) in infected monkeys after last DB844 dose; conditions: for Tmax: po
[2] = Metabolism of DB844 in vervet monkey liver microsomes; type: in vitro ADME
Experimental: The metabolism of DB844 was investigated using liver microsomes, prepared from a male vervet monkey by XenoTech, LLC (Lenexa, KS), in the presence of NADPH as described previously with modifications. Briefly, incubation mixtures (1 ml at pH7.4, in triplicate) contained 10 µM DB844 and 0.2 mg/ml monkey liver microsomes. After a 5-min equilibration period at 37°C, reactions were initiated with the addition of NADPH. Aliquots (50 µl) of the reaction mixtures were removed at 0, 5, 10, 15, 30, 60, 90, and 120 min and mixed with 25 µl of ice-cold acetonitrile. The mixtures were centrifuged (10,000×g for 5 min at 4°C) and the supernatants were analyzed by HPLC/UV using the same method as previously described for DB289 [22]. […] DB844 and metabolites were quantified using a single-concentration calibration curve generated using synthetic standards.

[3] = system: Trypanosoma brucei rhodesiense KETRI 2537; parameters: method as in earlier work; conditions: treatment initiated at 28 DPI; unpublished TRC-KARI data; cited from earlier work
[4] = parameters: method as in PMID 20721830; conditions: extended phase I clinical trial, 14 day dose regimen of 100 mg bid; cited from earlier work
[5] = parameters: method as in PMID 17360833; conditions: dosed orally to cynomolgus monkey at 5 mg/kg; cited from earlier work
2nd stage HAT = system: 2nd stage HAT; parameters: method as in PMID 19620327, PMID 19064893; conditions: cited from earlier work

N=C(N)c1ccc(-c2ccc(-c3ccc(C(=N)N)cn3)o2)cc1 [DB820]
sporadic CSF concentration ([1]; 2/7 monkeys (571 and 624), between 24 and 96 h post dose): < 4 nM | detection in the CSF ([1]; after last dose of DB844 6 mg/kg×14 days, samples at 1, 24, 96, 168 h and weekly): not detected | concentration at 28 days ([1]; monkey, in vivo, 6 mg/kg): 35 nM | Tmax ([1]; monkey, in vivo, 6 mg/kg, Tmax, plasma, after the 14th oral dose of DB844 at 6 mg/kg, n = 7, median, analyte = label): 4.08 h | Tmax ([1]; monkey, in vivo, 6 mg/kg, time of peak plasma concentration, after the last (14th) dose of DB844 at 6 mg/kg, analyte = label): 4 h | AUClast ([1]; plasma, after the 14th oral dose of DB844 at 6 mg/kg, n = 7, geometric mean, analyte = label): 1400 nmol·days/L

CO/N=C(/N)c1ccc(-c2ccc(-c3ccc(/C(N)=N/O)cc3)o2)nc1 [M1B]
relative metabolite concentration in the drug/liver microsome mixture [2]: highest concentrations during the initial 20 minutes

CONC(=N)c1ccc(-c2ccc(-c3ccc(C(=N)NOC)cc3)o2)cc1 [pafuramidine, 2,5-bis(4-amidinophenyl)furan-bis-O-methylamidoxime]
cure in the vervet monkey model of CNS stage HAT [3]: non-curative; also recorded: did not cure any monkey | subjects who developed delayed renal insufficiency [4]: 6% | Cmax [5]: 30 to 35 nM | cure against 2nd stage HAT in animal models (2nd stage HAT): did not achieve cure

N=C(N)c1ccc(OCCCCCOc2ccc(C(=N)N)cc2)cc1 [pentamidine]
cure in the vervet monkey model of CNS stage HAT [3]: non-curative; also recorded: did not cure any monkey | cure against 2nd stage HAT in animal models (2nd stage HAT): did not achieve cure
